Test results reported in DBAASP.
≈ marks a conversion by molar mass, not a printed value. Each block holds one molecule with its values, some of them ahead of it.

Tests used:
Assay in all cases: ≥ marks a high value that may be exact or a test limit, other limits are often not marked, values filed in µg/mL are converted to µM
[1] = system: Micrococcus luteus ATCC 9341
[2] = system: Bacillus subtilis 168
[3] = system: Candida albicans F7-39/IDE99
[4] = system: Escherichia coli B
[5] = system: Pseudomonas aeruginosa
[6] = system: Staphylococcus aureus
[7] = system: Bacillus cereus
[8] = system: Escherichia coli
[9] = system: Escherichia coli ATCC 25922
[10] = system: Micrococcus luteus
[11] = system: Pseudomonas aeruginosa ATCC 15692
[12] = system: Saccharomyces cerevisiae
[13] = system: Staphylococcus aureus ATCC 25923
[14] = system: Acinetobacter baumannii
[15] = system: Enterococcus faecalis
[16] = system: Klebsiella pneumoniae
[17] = system: Staphylococcus epidermidis
[18] = system: Escherichia coli DH5alpha
[19] = system: Salmonella typhimurium
[20] = system: Candida albicans NCYC 1467
[21] = system: Enterococcus faecalis NCTC 12697
[22] = system: Escherichia coli NCTC 10418
[23] = system: Klebsiella pneumoniae ATCC 43816
[24] = system: Pseudomonas aeruginosa ATCC 27853
[25] = system: Staphylococcus aureus NCTC 10788
[26] = system: Staphylococcus aureus NCTC 12493

- MIC [1]: 0.4 µM (≈ 0.716 µg/mL)
Structure (SMILES): CC[C@H](C)[C@H](N)C(=O)N[C@@H](CC(C)C)C(=O)N1CCC[C@H]1C(=O)N[C@@H](C)C(=O)N[C@@H](CCCCN)C(=O)N[C@@H](Cc1c[nH]c2ccccc12)C(=O)N1CCC[C@H]1C(=O)N[C@@H](Cc1c[nH]c2ccccc12)C(=O)N[C@@H](Cc1c[nH]c2ccccc12)C(=O)N1CCC[C@H]1C(=O)N[C@@H](Cc1c[nH]c2ccccc12)C(=O)N[C@@H](CCCN=C(N)N)C(=O)N[C@@H](CCCN=C(N)N)C(N)=O [ILPAKWPWWPWRR]

- MIC [2]: 1.3 µM (≈ 1.83 µg/mL)
- MIC [3]: 5 µM (≈ 7.05 µg/mL)
- MIC [4]: 3 µM (≈ 4.23 µg/mL)
- MIC [5]: 20.2 µM (≈ 28.5 µg/mL)
- MIC [6]: 7.7 µM (≈ 10.9 µg/mL)
Structure (SMILES): CSCC[C@H](NC(=O)CN)C(=O)N[C@@H](Cc1c[nH]c2ccccc12)C(=O)N[C@@H](CO)C(=O)N[C@@H](CCCCN)C(=O)N[C@@H](CC(C)C)C(=O)N[C@@H](CC(C)C)C(=O)NCC(=O)N[C@@H](Cc1cnc[nH]1)C(=O)N[C@@H](CC(C)C)C(=O)N[C@@H](CC(C)C)C(=O)N[C@@H](CCCN=C(N)N)C(N)=O [GMWSKLLGHLLR]

- MIC [2]: 3.7 µM (≈ 5.24 µg/mL)
- MIC [3]: 25 µM (≈ 35.4 µg/mL)
- MIC [4]: 14.7 µM (≈ 20.8 µg/mL)
- MIC [5]: > 100 µM
- MIC [6]: 90 µM (≈ 128 µg/mL)
Structure (SMILES): CSCC[C@H](NC(=O)[C@H](C)NC(=O)[C@H](CC(C)C)NC(=O)[C@H](CCCCN)NC(=O)[C@H](CC(C)C)NC(=O)[C@H](CC(C)C)NC(=O)[C@H](CCCCN)NC(=O)[C@H](CCCCN)NC(=O)[C@@H](NC(=O)[C@@H](N)CC(C)C)C(C)C)C(=O)NCC(=O)N[C@@H](Cc1ccccc1)C(=O)NCC(N)=O [LVKKLLKLAMGFG]

- MIC [2]: 0.8 µM (≈ 1.13 µg/mL)
- MIC [3]: 6.2 µM (≈ 8.74 µg/mL)
- MIC [4]: 3.8 µM (≈ 5.36 µg/mL)
- MIC [5]: 45 µM (≈ 63.4 µg/mL)
- MIC [6]: 7.7 µM (≈ 10.9 µg/mL)
Structure (SMILES): CC[C@H](C)[C@H](NC(=O)[C@H](CC(C)C)NC(=O)[C@H](Cc1cnc[nH]1)NC(=O)CNC(=O)[C@H](CC(C)C)NC(=O)[C@@H](NC(=O)[C@H](CCCCN)NC(=O)[C@H](CO)NC(=O)[C@H](Cc1c[nH]c2ccccc12)NC(=O)[C@H](CCSC)NC(=O)CN)[C@@H](C)CC)C(=O)N[C@@H](CCCN=C(N)N)C(N)=O [GMWSKILGHLIR]

- MIC [7]: 30.4 µM (≈ 64 µg/mL)
- MIC [8]: 122 µM (≈ 256 µg/mL)
- MIC [6]: 15.2 µM (≈ 32 µg/mL)
Structure (SMILES): CC(C)C[C@H](NC(=O)[C@H](CCCCN)NC(=O)[C@H](Cc1ccccc1)NC(=O)[C@@H](NC(=O)[C@@H](NC(=O)CNC(=O)[C@H](CC(C)C)NC(=O)[C@@H](N)Cc1ccccc1)C(C)C)C(C)C)C(=O)N[C@@H](C)C(=O)N[C@@H](CO)C(=O)N[C@@H](CCCCN)C(=O)N[C@H](C(=O)N[C@@H](Cc1ccccc1)C(=O)N1CCC[C@H]1C(=O)N[C@@H](C)C(=O)N[C@H](C(=O)N[C@H](C(=O)NCC(=O)N[C@@H](CCCCN)C(=O)N[C@H](C(=O)O)C(C)C)C(C)C)C(C)C)C(C)C [FLGVVFKLASKVFPAVVGKV]

- MIC [9]: 16 µM (≈ 32.3 µg/mL)
- MIC [10]: 2 µM (≈ 4.04 µg/mL)
- MIC [11]: ≥ 128 µM
- MIC [12]: ≥ 64 µM
- MIC [13]: > 256 µM
Structure (SMILES): CC[C@H](C)[C@H](NC(=O)[C@H](C)NC(=O)[C@H](CCCCN)NC(=O)[C@H](C)NC(=O)[C@H](C)NC(=O)[C@H](CCCCN)NC(=O)CNC(=O)[C@H](Cc1ccccc1)NC(=O)[C@H](C)NC(=O)[C@@H](NC(=O)CNC(=O)[C@H](C)NC(=O)[C@H](CCCCN)NC(=O)[C@@H](NC(=O)[C@H](C)NC(=O)[C@H](CCSC)NC(=O)CN)[C@@H](C)O)[C@@H](C)O)C(=O)N[C@H](C(=O)NCC(=O)N[C@@H](C)C(=O)N[C@@H](C)C(=O)N[C@@H](CC(C)C)C(=O)O)[C@@H](C)CC [GMATKAGTAFGKAAKAIIGAAL]

- MIC [14]: 5.2 µM (≈ 12.8 µg/mL)
- MIC [15]: 10.3 µM (≈ 25.4 µg/mL)
- MIC [8]: 5.2 µM (≈ 12.8 µg/mL)
- MIC [16]: 21 µM (≈ 51.7 µg/mL)
- MIC [5]: 10.3 µM (≈ 25.4 µg/mL)
- MIC [6]: 20.6 µM (≈ 50.8 µg/mL)
- MIC [17]: 10.3 µM (≈ 25.4 µg/mL)
Structure (SMILES): CC[C@H](C)[C@H](NC(=O)CNC(=O)[C@H](CCCN=C(N)N)NC(=O)[C@H](Cc1ccc(O)cc1)NC(=O)[C@H](CC(C)C)NC(=O)[C@H](Cc1cnc[nH]1)NC(=O)CNC(=O)[C@H](Cc1ccccc1)NC(=O)[C@@H](N)Cc1c[nH]c2ccccc12)C(=O)N[C@H](C(=O)N[C@@H](CO)C(=O)N[C@H](C(=O)N[C@H](C(=O)N[C@@H](CCCCN)C(=O)N[C@@H](Cc1cnc[nH]1)C(=O)N[C@H](C(=O)N[C@@H](Cc1cnc[nH]1)C(=O)NCC(=O)N[C@@H](CC(C)C)C(=O)N[C@@H](CC(C)C)C(=O)N[C@@H](CO)C(=O)NCC(=O)O)C(C)C)C(C)C)C(C)C)[C@@H](C)O [WFGHLYRGITSVVKHVHGLLSG]

- MIC [18]: 15 µM (≈ 27.8 µg/mL)
- MIC [16]: 25 µM (≈ 46.4 µg/mL)
- MIC [5]: 100 µM (≈ 185 µg/mL)
- MIC [19]: 25 µM (≈ 46.4 µg/mL)
Structure (SMILES): CC[C@H](C)[C@H](N)C(=O)N[C@@H](CC(C)C)C(=O)N1CCC[C@H]1C(=O)N[C@@H](Cc1c[nH]c2ccccc12)C(=O)N[C@@H](CCCCN)C(=O)N[C@@H](Cc1c[nH]c2ccccc12)C(=O)N[C@@H](C)C(=O)N[C@@H](Cc1c[nH]c2ccccc12)C(=O)N[C@@H](Cc1c[nH]c2ccccc12)C(=O)N[C@@H](C)C(=O)N[C@@H](Cc1c[nH]c2ccccc12)C(=O)N[C@@H](CCCN=C(N)N)C(=O)N[C@@H](CCCN=C(N)N)C(N)=O [ILPWKWAWWAWRR]

- MIC [9]: 64 µM (≈ 149 µg/mL)
- MIC [10]: ≥ 32 µM
- MIC [11]: ≥ 256 µM
- MIC [12]: ≥ 128 µM
- MIC [13]: > 256 µM
Structure (SMILES): CC[C@H](C)[C@H](NC(=O)[C@H](Cc1ccccc1)NC(=O)CNC(=O)[C@H](CCCCN)NC(=O)[C@H](C)NC(=O)[C@H](Cc1ccccc1)NC(=O)[C@H](CCCCN)NC(=O)[C@H](CCCCN)NC(=O)[C@H](C)NC(=O)[C@H](CO)NC(=O)[C@H](Cc1cnc[nH]1)NC(=O)[C@H](C)NC(=O)[C@@H](NC(=O)[C@H](CCC(=O)O)NC(=O)[C@H](CCCCN)NC(=O)[C@H](CC(C)C)NC(=O)CN)C(C)C)C(=O)N[C@@H](CO)C(=O)NCC(=O)N[C@@H](CC(C)C)C(=O)N[C@H](C(=O)NCC(=O)N[C@@H](CO)C(=O)O)[C@@H](C)O [GLKEVAHSAKKFAKGFISGLTGS]

- MIC [20]: 4 µM (≈ 10.5 µg/mL)
- MIC [21]: 2 µM (≈ 5.23 µg/mL)
- MIC [22]: 2 µM (≈ 5.23 µg/mL)
- MIC [23]: 2 µM (≈ 5.23 µg/mL)
- MIC [24]: 4 µM (≈ 10.5 µg/mL)
- MIC [25]: 2 µM (≈ 5.23 µg/mL)
- MIC [26]: 2 µM (≈ 5.23 µg/mL)
Structure (SMILES): CC[C@H](C)[C@H](NC(=O)[C@H](CCCCN)NC(=O)[C@H](CO)NC(=O)[C@H](Cc1c[nH]c2ccccc12)NC(=O)[C@H](CC(C)C)NC(=O)CN)C(=O)N[C@@H](CCCCN)C(=O)N[C@@H](CCCCN)C(=O)N[C@@H](C)C(=O)N[C@@H](C)C(=O)N[C@@H](CCCCN)C(=O)N[C@H](C(=O)N[C@@H](C)C(=O)NCC(=O)N[C@@H](CCCCN)C(=O)N[C@@H](C)C(=O)N[C@@H](C)C(=O)N[C@@H](CC(C)C)C(=O)NCC(=O)N[C@@H](Cc1ccccc1)C(=O)N[C@H](C(=O)N[C@@H](CC(N)=O)C(=O)N[C@@H](CCCCN)C(=O)N[C@@H](CCSC)C(=O)N[C@H](C(N)=O)C(C)C)C(C)C)[C@@H](C)O [GLWSKIKKAAKTAGKAALGFVNKMV]

- MIC [7]: ≥ 116 µM
- MIC [8]: 116 µM (≈ 256 µg/mL)
Structure (SMILES): CC[C@H](C)[C@H](NC(=O)[C@@H](NC(=O)[C@H](CS)NC(=O)[C@H](Cc1ccc(O)cc1)NC(=O)[C@@H](NC(=O)[C@H](CO)NC(=O)[C@@H]1CCCN1C(=O)[C@@H](NC(=O)[C@@H](NC(=O)[C@H](CCCCN)NC(=O)[C@H](CO)NC(=O)[C@H](C)NC(=O)[C@H](CC(C)C)NC(=O)[C@H](CCCCN)NC(=O)[C@H](Cc1ccccc1)NC(=O)[C@@H](NC(=O)[C@@H](N)C(C)C)C(C)C)C(C)C)C(C)C)C(C)C)[C@@H](C)O)C(=O)N[C@H](C(=O)N[C@@H](CCCCN)C(=O)N[C@@H](CCCCN)C(=O)O)[C@@H](C)O [VVFKLASKVVPSVYCTITKK]
